Experiments:
Type in all cases: cell-based
[1] = system: SOX2; assay: SOX2 levels by Western blot after MAPKi treatment; conditions: A375-P cells, indicated times
Protocol: (A) A375-P cells were treated with PLX4720 (BRAFi) or DMSO for 6 h, RNA was isolated and RNA-Seq was performed. […] Differentially expressed genes (DEGs) selected for pathway analysis are represented by red and blue dots depending on the direction of the transcriptional change (red genes are induced upon PLX4720, blue genes are repressed upon PLX4720). (B) Bar graphs showing the five top pathways with significant enrichment of the analyzed DEGs. Longer bars indicate stronger significance. (C) Top deregulated genes upon treatment with PLX4720 (left column). Top genes induced and repressed by PLX4720 are shown in separate lists. (D) Indicated cell lines were treated with 1 μM PLX4720 or 0.01% DMSO (0 h) for the indicated times and the expressional changes of selected genes associated with stemness/EMT were confirmed by qPCR. […] Data shown represent mean of independent biological triplicates ±SEM. (E) Western blot analysis of the same experiment as shown in (D). As key player in the stemness signature, SOX2 levels were assessed. P-ERK1/2 levels served as positive treatment controls. Total ERK1/2 levels served as loading control. (F) A375-P cells were treated with 1 μM PLX4720, 0.5 μM AZD6244 (MEK1/2 inhibitor) or 0.01% DMSO for the indicated times and SOX2 levels were assessed by Western blot analysis. […] (G) A375-P cells were treated with 1 μM PLX4720 (BRAFi), 0.5 μM AZD6244 (MEKi), a combination of both drugs or 0.01% DMSO for the indicated times and SOX2 levels were assessed by Western blot analysis. […] (H) A375-P cells were treated with 1 μM PLX4720 (BRAFi), 0.5 μM AZD6244 (MEKi), a combination of both drugs or 0.01% DMSO for the 24 h and the expressional changes of selected genes associated with stemness/EMT were confirmed by qPCR. […] For all Western blots, individual time points were assessed in at least two independent experiments. Representative data is shown.

[2] = system: genes associated with stemness/EMT; assay: qPCR of selected genes associated with stemness/EMT in A375-P cells; conditions: FIG. 1H, 1 μM PLX4720, 0.5 μM AZD6244 or combination of both, 24 h
Protocol: (A) A375-P cells were treated with PLX4720 (BRAFi) or DMSO for 6 h, RNA was isolated and RNA-Seq was performed. […] (B) Bar graphs showing the five top pathways with significant enrichment of the analyzed DEGs. Longer bars indicate stronger significance. […] Data shown represent mean of independent biological triplicates ±SEM. (E) Western blot analysis of the same experiment as shown in (D). As key player in the stemness signature, SOX2 levels were assessed. P-ERK1/2 levels served as positive treatment controls. Total ERK1/2 levels served as loading control. (F) A375-P cells were treated with 1 μM PLX4720, 0.5 μM AZD6244 (MEK1/2 inhibitor) or 0.01% DMSO for the indicated times and SOX2 levels were assessed by Western blot analysis. […] (G) A375-P cells were treated with 1 μM PLX4720 (BRAFi), 0.5 μM AZD6244 (MEKi), a combination of both drugs or 0.01% DMSO for the indicated times and SOX2 levels were assessed by Western blot analysis. […] For all Western blots, individual time points were assessed in at least two independent experiments. Representative data is shown.

[3] = system: S6K and BAD; assay: Survival signaling by Western blot in A375-P/pTRIPZ cells; conditions: FIG. 2G, PLX4720 for 48 h
Protocol: (§1) (A) A375-P cells were transfected with 100 nM siRNA targeting SOX2 or a negative control siRNA. Cells were then treated with PLX4720 (BRAFi) or DMSO for 48 h. 2 h before harvesting, cells were pulsed with 3 uM EdU to label cycling cells. EdU-positive cells were detected using flow cytometry. […] Representative data is shown. (B) Quantification of experiment (A). For each condition, percentage of cycling cells upon siRNA knockdown of SOX2 was normalized to the negative control siRNA. Data shown represent mean of independent biological triplicates ±SEM. (C) A375-P cells stably transduced with pTRIPZ-SOX2 vector were treated with the indicated concentrations of doxycycline for three days or with 1 μM PLX4720 (PLX) for 24 h. SOX2 overexpression was confirmed by Western blot analysis. Lamin A served as loading control. Individual concentrations were assessed in at least two independent experiments. Representative results are shown. (D) A375-P/pTRIPZ-control or -SOX2 cells were pre-treated with 0 ng/ml (negative control) or with 50 ng/ml doxycycline for 24 h, and subsequently with DMSO or PLX4720 for an additional 48 h. 2 h before harvesting, cells were pulsed with 3 uM EdU to label cycling cells. EdU-positive cells were detected using flow cytometry. […] Cell viability was assessed by PrestoBlue assay and IC50 values were calculated. […] Survival signaling was assessed by Western blot. […]

[4] = system: A375-P/pTRIPZ-control or -SOX2 cells; assay: Cell viability by PrestoBlue assay; conditions: FIG. 2E-F; pTRIPZ-SOX2 cells with 50 ng/ml doxycycline versus 0 ng/ml; serial dilutions of PLX4720 for four days
Protocol: as §1

[5] = FIG. 1F, 1 μM PLX4720 or 0.5 μM AZD6244
[6] = FIG. 1G, 1 μM PLX4720, 0.5 μM AZD6244 or combination of both

Structure (SMILES)	SOX2 levels (Western blot) [1, 5]	SOX2 levels (Western blot) [1, 6]	transcript levels of selected stemness/EMT genes (qPCR) [2]	survival signaling via S6K and BAD (Western blot) [3]	drug sensitivity (survival curve, cell viability) [4]
Cn1cnc2c(F)c(Nc3ccc(Br)cc3Cl)c(C(=O)NOCCO)cc21 [AZD6244]	induce similar SOX2 levels	comparable effects on SOX2 levels	comparable effects on transcript levels	–	–
CCCS(=O)(=O)Nc1ccc(F)c(C(=O)c2c[nH]c3ncc(Cl)cc23)c1F [PLX4720]	induce similar SOX2 levels	comparable effects on SOX2 levels	comparable effects on transcript levels	repressed	decreased drug sensitivity when SOX2 is overexpressed

Source: patent US20200087732A1, “IDENTIFICATION OF DRUGS TARGETING NON-GENETIC DRUG TOLERANCE PROGRAMS IN CANCER” (ETH ZURICH, priority 2016, published 2020)
